Measurements from ChEMBL document CHEMBL1201862, “PubChem BioAssay data set” (2004).
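Protocol summary: plate cells (96-well), add compound at 5 concentrations, incubate 48 h, interpolate endpoints linearly. The concentration for 50% growth inhibition is given as GI50.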 The source made the active and inactive calls. No stated cut-off is given here; in the data, active = GI50 up to about 1.1 µM and inactive = higher. Where a SMILES comes first, the peptide text is derived from it. The star is where a group is joined. Cbz = O=C(OCc1ccccc1)*; Boc = CC(C)(C)OC(=O)*; tBu = CC(C)(C)*

Legend:
Assay in all cases: NCI anticancer screen, dose series, 48 h
[1] = test system: OVCAR-3
[2] = test system: A549
[3] = test system: PC-3
[4] = test system: SF-295
[5] = test system: SNB-19
[6] = test system: SW-620
[7] = test system: CCRF-CEM
[8] = test system: SF-268
[9] = test system: ACHN
[10] = test system: HL-60
[11] = test system: SK-OV-3
[12] = test system: SN12C
[13] = test system: BT-549
[14] = test system: U-251
[15] = test system: IGROV-1
[16] = test system: HCT-116
[17] = test system: DU-145
[18] = test system: 786-0
[19] = test system: OVCAR-4
[20] = test system: MCF7

Measured: GI50

CC1=NNC(=O)C1C(CC(=O)c1c[nH]c2ccccc12)C(=O)O (centres undefined)
inactive: [1] > 100 µM | [2] > 100 µM | [3] > 100 µM | [4] > 100 µM | [5] > 100 µM | [6] > 100 µM | [7] 28.6 µM | [8] > 100 µM | [9] > 100 µM | [10] 74.5 µM | [11] > 100 µM | [12] > 100 µM | [13] > 100 µM | [14] > 100 µM | [15] 15 µM | [16] > 100 µM | [17] > 100 µM | [18] > 100 µM

O=[N+]([O-])/C(Cl)=C(\Nc1ccccc1)C(Cl)=C(Cl)Cl
inactive: [1] 18.2 µM | [2] 32.7 µM | [3] 38.3 µM | [4] 33 µM | [5] 33.5 µM | [7] 12.7 µM | [19] 41.6 µM | [8] 32.1 µM | [20] 14.3 µM | [9] 29.2 µM | [10] 20.9 µM | [11] 43.7 µM | [12] 33.9 µM | [14] 43.1 µM | [15] 32.4 µM | [16] 36.1 µM | [17] 36.8 µM | [18] 27.5 µM

Cc1nnc([C@@]2(C)CC[C@H]3[C@@H](CC=C4C[C@@H](O)CC[C@@]43C)[C@@H]2CC#N)o1
inactive: [1] > 100 µM | [2] > 100 µM | [3] > 100 µM | [4] > 100 µM | [5] > 100 µM | [6] > 100 µM | [7] > 100 µM | [19] > 100 µM | [8] > 100 µM | [20] > 100 µM | [9] > 100 µM | [10] > 100 µM | [11] > 100 µM | [12] > 100 µM | [13] > 100 µM | [14] > 100 µM | [16] > 100 µM | [18] > 100 µM

Cn1c2ccccc2n2c(=O)c(-c3ccc(Cl)cc3)nnc12
inactive: [2] > 100 µM | [4] > 100 µM | [5] > 100 µM | [6] > 100 µM | [7] > 100 µM | [19] 68.4 µM | [8] > 100 µM | [20] > 100 µM | [9] > 100 µM | [10] > 100 µM | [12] > 100 µM | [13] > 100 µM | [14] > 100 µM | [15] > 100 µM | [16] > 100 µM | [17] > 100 µM | [18] > 100 µM

O=[As](O)(O)c1ccc2nc3cc([As](=O)(O)O)ccc3nc2c1
inactive: [1] > 100 µM | [2] > 100 µM | [3] > 100 µM | [4] > 100 µM | [5] > 100 µM | [6] > 100 µM | [19] > 100 µM | [8] > 100 µM | [20] > 100 µM | [9] > 100 µM | [12] > 100 µM | [13] > 100 µM | [14] > 100 µM | [15] > 100 µM | [16] > 100 µM | [17] > 100 µM | [18] > 100 µM

CCCCCC[C@H]1CC(=O)C2CCCC[C@@]23CC[C@H](CCl)N13.CCCCCC[C@H]1CC(=O)C2CCCC[C@@]23C[C@H](Cl)CN13 (some centres undefined)
inactive: [1] 25.1 µM | [2] 37 µM | [3] 23.3 µM | [4] 51.2 µM | [5] 37.9 µM | [7] 33.2 µM | [19] 40.2 µM | [8] 65.2 µM | [20] 40.1 µM | [9] 53.5 µM | [10] 21.8 µM | [11] > 100 µM | [12] 82 µM | [14] 29.6 µM | [15] > 100 µM | [16] 51.9 µM | [17] 61 µM | [18] > 100 µM

O=C(NC1=NC2C=CC([N+](=O)[O-])=CC2S1)C(=O)Nn1c(S)nc2ccccc2c1=O (centres undefined)
inactive: [1] > 100 µM | [2] > 100 µM | [3] 40.6 µM | [4] 88.9 µM | [5] 24.3 µM | [6] > 100 µM | [7] 45.9 µM | [19] 27.4 µM | [8] 99.3 µM | [20] 97.7 µM | [9] 24.1 µM | [10] 56.4 µM | [11] 63 µM | [12] > 100 µM | [13] 65.8 µM | [14] 66.7 µM | [15] 21 µM | [16] 79.3 µM | [18] > 100 µM

CC(OC(C)(C)C)C(NC(=O)C(CCCCNC(=O)OC(C)(C)C)NC(=O)C(Cc1c[nH]c2ccccc12)NC(=O)C(Cc1ccccc1)NC(=O)OCc1ccccc1)C(=O)NC(Cc1ccccc1)C(=O)O (centres undefined) (Cbz-FWK(Boc)T(tBu)F-OH; configuration not given here)
inactive: [1] 32.1 µM | [2] > 100 µM | [3] 34.8 µM | [4] 76.7 µM | [5] 37.7 µM | [6] 75.2 µM | [7] 28.1 µM | [19] 91 µM | [8] 45.7 µM | [20] 31.1 µM | [9] 69.3 µM | [10] > 100 µM | [11] 39.5 µM | [12] 25.8 µM | [14] 37.9 µM | [15] 31 µM | [16] 36.6 µM | [17] 61.1 µM | [18] > 100 µM

O[C@@]1(C#Cc2ccc3c(c2)OCO3)CCC[C@H]1NCc1ccccc1
inactive: [1] 20.4 µM | [2] 31.3 µM | [3] 19.2 µM | [4] 19.8 µM | [5] 22.5 µM | [6] 31.4 µM | [7] 33.8 µM | [19] 38.6 µM | [8] 36.7 µM | [20] 22.5 µM | [9] 37.2 µM | [10] 18.4 µM | [11] 35.7 µM | [14] 22.9 µM | [15] 14.1 µM | [17] 47.2 µM | [18] 17.5 µM

COc1ccc(/C(C)=N/NC(=O)c2ccncc2)cc1OC
inactive: [2] > 10 µM | [6] > 10 µM | [7] > 10 µM | [19] > 10 µM | [8] > 10 µM | [20] > 10 µM | [10] > 10 µM | [11] > 10 µM | [12] > 10 µM | [13] > 10 µM | [14] > 10 µM | [15] > 10 µM | [17] > 10 µM | [18] > 10 µM

NC(=O)C1Cc2cc3c(cc21)OCO3 (centres undefined)
inactive: [1] > 100 µM | [2] > 100 µM | [3] > 100 µM | [4] > 100 µM | [5] > 100 µM | [8] > 100 µM | [20] > 100 µM | [9] > 100 µM | [11] > 100 µM | [13] > 100 µM | [15] > 100 µM | [16] > 100 µM | [17] > 100 µM | [18] > 100 µM
